Reference: EP0084678B1, “New compound having analgesic, antiinflammatory and mucoregulating activities, process for its production and relative pharmaceutical compositions” (AUSONIA FARMACEUTICI S.r.l., priority 1982, dated 1983)

Assays:
[1] = system: writhings by phenylquinone; assay: Analgesic activity, writhings by phenylquinone; type: in vivo; conditions: mouse; for % Inhibition in comparison with controls: writhings
Protocol: The test of writhings by phenylquinone in the mouse has been used. AFP-696 has been administered by oral route at the dose of 500 mg/kg in comparison with acetylsalicylic acid at the dose of […].
The two drugs have been administered per os 30 minutes after intraperitoneal injection of phenil- quinone.

[2] = system: subplantar edema induced by carrageenin; assay: Antiinflammatory activity, subplantar edema by carrageenin; type: in vivo; conditions: rat; for MEAN LIMB VOLUME AT DIFFERENT HOURS AFTER TREATMENT 0: hour 0; for MEAN LIMB VOLUME AT DIFFERENT HOURS AFTER TREATMENT 1: hour 1; for MEAN LIMB VOLUME AT DIFFERENT HOURS AFTER TREATMENT 2: hour 2; for MEAN LIMB VOLUME AT DIFFERENT HOURS AFTER TREATMENT 3: hour 3; for MEAN LIMB VOLUME AT DIFFERENT HOURS AFTER TREATMENT 4: hour 4; for MEAN LIMB VOLUME AT DIFFERENT HOURS AFTER TREATMENT 5: hour 5; for AREA Absolute value: limb volume over 5 hours
Protocol: Tests have been performed on the rat, employing the test of the subplantar edema induced by carrageenin. […] and, for comparison, ASA, have been administered by oral route 30 minutes before carrageenin, at the doses hereinafter stated. After edema induction, the animals of each group have been controlled, every 60 minutes for 5 consecutives hours, in order to point out the evolution of the inflammatory process.

gastric mucose = assay: Gastrolesive action; type: in vivo; conditions: rats fasting since 18 hours, 5 hours 30 minutes after treatment
Protocol: Rats fasting since 18 hours have been treated by oral route with AFP-696 and, for comparison, with acetylsalicylic acid, at the doses hereinafter stated. 5 Hours and 30 minutes after treatments, the animals have been sacrificed and the stomach has been withdrawn for gastric mucose examination.

[3] = system: cough induced by citric acid aerosol; assay: Anti-cough activity, cough induced by citric acid aerosol; type: in vivo, rabbits; conditions: cough strokes
Protocol: The anti-cough activity of AFP-696 has been assessed after administration by endoperitoneal route (30% in tween) on rabbits of both sexes, weighing […], according to the method of the cough induced by citric acid aerosol administration, and evaluating the mean number of cough strokes in comparison with the same basal values (Boura and coil. - Prog. Brit. Pharmac. Soc. Apr. 1970). As reference standard a group of codeine treated animals at the dose of 12.5 mg/kg has been used.

[4] = Acute toxicity (Litchfield and Wilcoxon method), rat; conditions: Wistar, in vivo
From the text: (§1) The acute toxicity has been determined in Swiss mouse and in Wistar rat for different administration routes, according to the method of Litchfield J.T. and Wilcoxon [J. Pharm. Exp. Therap. 96, 99―113, (1949)].
(§2) The results obtained are reported in the following Table I; from the same it can be pointed out how AFP 696 is endowed with a very low acute toxicity.

[5] = Acute toxicity (Litchfield and Wilcoxon method), mouse; conditions: Swiss, in vivo
From the text: as §1, §2

male rabbit = assay: Mucosecretolytic activity (technique of Giraldez et al.); type: in vivo; conditions: 500 mg/kg/os
From the text: The mucosecretolytic activity has been studied in the male rabbit according to the technique of Giraldez, Grass and Bruseghini (Abstr. Comp. Int. Pharm. N. 1086-Paris 1978), by administration by the oral route, comparing AFP-696 with carboxymethylcysteine and sobrerol at the dose hereinafter stated.

[6] = Solubility of the isolated product; type: physicochemical
Protocol: To 90 g of ASA in 500 ml of benzene, 120 g of thionyl chloride are added. The mixture is refluxed for three hours. At the end, the benzene is evaporated under reduced pressure to dryness. The acetylsalicyclic acid chloride so obtained is dissolved in 500 ml of anhydrous tetrahydrofuran and added with 80 g of pyridine; to this solution 85 g of sobrerol (di-trans form) are added. The reaction is completed after two hours refluxing. At the end the solvent is evaporated under reduced pressure, the residue is washed with water and extracted with ethyl ether. […] Its structure is confirmed by analytical and spectroscopical data: • Elemental analysis: for C19H24O5 (M.W. = 332.39) • calcd. % C = 68.66; H = 7.28 • found % C = 68.79; H = 7.33. • I.R. Spectrum (liquid film; values of absorption bands are expressed in cm^-1): • stretch 0-H 3550-3400 broad bands • stretch C-H aromatics alifatics 3080-2910 • stretch C = O alifat. ester 1780 • stretch C = O aromat. ester 1730 • stretch C = C 1615 • stretch C(= 0)-O acetate 1145 • stretch C(= 0)-0 arilyc 1255 • H' NMR Spectrum (recorded in CDCI3, internal references TMS; values of chemical shifts are expressed in 6): • 1.2 (d, 6H, 2(CH3)); • 1.8 (s, 3H, =C-CH3); • 1.4-2.2 (m, 6H, CH2-CH-CH2, OH mobile); • 2.3 (s, 3H, CO-CH3); • 5.3 (m, 1H, CH―O―CO); • 5.8 (m, 1H, CH=C-CH3); • 7-7.7 (m, 3H aromatics); • 8 (double d, 1H aromatic). […]

[7] = Pharmacokinetics, plasma and lung levels by gas chromatography; type: in vivo; conditions: rats
Protocol: Two groups of rats have been treated per os, by gastric tube, with AFP-696 at the dose of 100 mg/kg and acetylsalicylic acid at the dose of 54 mg/kg. At the moment of treatment rats were fasting since 18 hours. Rats have been then sacrificed in groups of 4 at different times: 30 min., 1 h, 2 h, 4 h, 6 h.
The concentration both of unchanged products and of their metabolites have been measured by gaschromatography in plasma and in the lung.

male Wistar rats = assay: Bronchosecretogogue activity (Mawatari technique); type: in vivo, rat; conditions: 500 mg/kg/os, FlNa = Sodium fluoresceine
From the text: The bronchosecretogogue activity has been determined in male Wistar rats by per os administration according to the method of Mawatari [Mawatari H., Kagoshima Daigaku Igaku-Zasshi, 27, 561 (1976)], comparing AFP-696 with carboxymethylcysteine and sobrerol at the doses hereinafter stated.

CC(=O)Oc1ccccc1C(=O)O [Acetylsalicylic acid, acetylsalicylic acid, reference compound]
Mean No of writhings ([1]; 250 mg/kg os): 0.6 ± 0.5
No animals with writhings ([1]; 250 mg/kg os): 1/10
% Inhibition in comparison with controls ([1]; 250 mg/kg os): 95.3%
AREA % Inhibition in comparison with controls ([2]; 250 mg/kg os): 33.6%
MEAN LIMB VOLUME AT DIFFERENT HOURS AFTER TREATMENT 0 ([2]; 250 mg/kg os): 24.3
MEAN LIMB VOLUME AT DIFFERENT HOURS AFTER TREATMENT 1 ([2]; 250 mg/kg os): 27.4
MEAN LIMB VOLUME AT DIFFERENT HOURS AFTER TREATMENT 2 ([2]; 250 mg/kg os): 32.2
MEAN LIMB VOLUME AT DIFFERENT HOURS AFTER TREATMENT 3 ([2]; 250 mg/kg os): 37.8
MEAN LIMB VOLUME AT DIFFERENT HOURS AFTER TREATMENT 4 ([2]; 250 mg/kg os): 38.6
MEAN LIMB VOLUME AT DIFFERENT HOURS AFTER TREATMENT 5 ([2]; 250 mg/kg os): 38.6
AREA Absolute value ([2]; 250 mg/kg os): 181.28
Mean ulcers' size (gastric mucose; 100 mg/kg/os): 3.9 ± 1.2 mm

COc1ccc2c3c1O[C@H]1[C@@H](O)C=C[C@H]4[C@@H](C2)N(C)CC[C@@]341 [Codeine, codeine, reference compound]
% Inhibition in comparison with controls ([3]; 12.5 mg/kg): 76.7%

CC(=O)Oc1ccccc1C(=O)OC1CC(C(C)(C)O)CC=C1C (stereo not drawn) [AFP-696, 2-acetoxybenzoate of 2-methyl-5-(1-hydroxy-1-methylethyl)-cyclohexen-2-yl]
LD50 ([4]; ip): 1950 mg/kg
LD50 ([4]; oral, os): > 4000 mg/kg
LD50 ([5]; ip): 1600 mg/kg
LD50 ([5]; oral, os): 3500 mg/kg
Mean No of writhings ([1]; 500 mg/kg os): 1.3 ± 0.9
No animals with writhings ([1]; 500 mg/kg os): 3/10
% Inhibition in comparison with controls ([1]; 500 mg/kg os): 89.8%
% Increase of secretion in comparison with controls (male rabbit): 39.5%
AREA % Inhibition in comparison with controls ([2]; 500 mg/kg os): 33.0%
MEAN LIMB VOLUME AT DIFFERENT HOURS AFTER TREATMENT 0 ([2]; 500 mg/kg os): 24.1
MEAN LIMB VOLUME AT DIFFERENT HOURS AFTER TREATMENT 1 ([2]; 500 mg/kg os): 28.1
MEAN LIMB VOLUME AT DIFFERENT HOURS AFTER TREATMENT 2 ([2]; 500 mg/kg os): 31.4
MEAN LIMB VOLUME AT DIFFERENT HOURS AFTER TREATMENT 3 ([2]; 500 mg/kg os): 37.4
MEAN LIMB VOLUME AT DIFFERENT HOURS AFTER TREATMENT 4 ([2]; 500 mg/kg os): 38.1
MEAN LIMB VOLUME AT DIFFERENT HOURS AFTER TREATMENT 5 ([2]; 500 mg/kg os): 38.1
AREA Absolute value ([2]; 500 mg/kg os): 183.0
solubility in organic solvents ([6]; organic solvents): easily soluble
solubility in water ([6]; water): slightly soluble
pulmonary levels of salicylic acid ([7]; 100 mg/kg per os vs acetylsalicylic acid 54 mg/kg, lung): higher
plasma levels of acetylsalicylic acid in comparison with the administration of acetylsalicylic acid at equimolar doses ([7]; 100 mg/kg per os vs acetylsalicylic acid 54 mg/kg, more marked in the first two hours): higher
unchanged AFP-696 in plasma ([7]; 100 mg/kg per os, at 30 minutes and in some instance also at 1 hour): found in plasma
% Inhibition in comparison with controls ([3]; 150 mg/kg, endoperitoneal route (30% in tween)): 82.4%
% Increase of FlNa (*) in comparison with controls (male Wistar rats): 63.6%
Mean ulcers' size (gastric mucose; 150 mg/kg/os): 0.7 ± 0.4 mm

CC1=CCC(C(C)(C)O)CC1O (stereo not drawn) [Sobrerol, 2-methyl-5-(1-hydroxy-1-methyl-ethyl)-2-cyclohexen-1-ol, reference compound]
% Increase of secretion in comparison with controls (male rabbit): 36.8%
% Increase of FlNa (*) in comparison with controls (male Wistar rats): 33.4%
